{"source": "patent US8642770B2", "about": "“Indole derivative” (Takeda Pharmaceutical Company Limited, priority 2010, dated 2014)", "note": "Where a name gives a salt, the structure may show the parent alone."}
{"units": {"melting point": "°C"}}
{"smiles": "Cc1c(NC(=O)c2ccc(OC[C@@H]3CCCO3)cc2)ccc2c1cc(CN[C@H]1CC[C@](C)(O)CC1)n2C.Cl", "melting point": 278}
{"smiles": "Cn1c(CNCC(C)(C)C)cc2cc(NC(=O)c3ccc(OC[C@@H]4CCCO4)cc3)ccc21", "note": "(as salt: acetate) [Example 15, N-(2-{[(2,2-dimethylpropyl)amino]methyl}-1-methyl-1H-indol-5-yl)-4-[(2S)-tetrahydrofuran-2-ylmethoxy]benzamide acetate]", "melting point": "150 to 151"}
{"smiles": "CC1(CNCc2cc3cc(NC(=O)c4ccc(OCC5CC5)cc4)ccc3[nH]2)COC1", "note": "[Example 1, 4-(cyclopropylmethoxy)-N-[2-({[(3-methyloxetan-3-yl)methyl]amino}methyl)-1H-indol-5-yl]benzamide]", "melting point": "166 to 167"}
{"smiles": "O=C(Nc1ccc2[nH]c(CNCC3CCOCC3)cc2c1)c1ccc(OCC2CC2)cc1", "note": "[Example 3, 4-(cyclopropylmethoxy)-N-(2-{[(tetrahydro-2H-pyran-4-ylmethyl)amino]methyl}-1H-indol-5-yl)benzamide]", "melting point": 160}
{"smiles": "Cn1c(CNCC2(C)COC2)cc2cc(NC(=O)c3ccc(OCC4CC4)cc3)ccc21", "note": "[Example 4, 4-(cyclopropylmethoxy)-N-[1-methyl-2-({[(3-methyloxetan-3-yl)methyl]amino}methyl)-1H-indol-5-yl]benzamide]", "melting point": "154 to 155"}
{"smiles": "Cn1c(CNCC(C)(C)O)cc2cc(NC(=O)c3ccc(OCC4CC4)cc3)ccc21", "note": "[Example 5, 4-(cyclopropylmethoxy)-N-(2-{[(2-hydroxy-2-methylpropyl)amino]methyl}-1-methyl-1H-indol-5-yl)benzamide]", "melting point": "188 to 189"}
{"smiles": "Cn1c(CNCC(C)(C)S(C)(=O)=O)cc2cc(NC(=O)c3ccc(OCC4CC4)cc3)ccc21", "note": "[Example 7, 4-(cyclopropylmethoxy)-N-[1-methyl-2-({[2-methyl-2-(methylsulfonyl)propyl]amino}methyl)-1H-indol-5-yl]benzamide]", "melting point": "168 to 169"}
{"smiles": "Cn1c(CN[C@H]2CC[C@H](O)CC2)cc2cc(NC(=O)c3ccc(OCC4CC4)cc3)ccc21", "note": "[Example 8, 4-(cyclopropylmethoxy)-N-(2-{[(trans-4-hydroxycyclohexyl)amino]methyl}-1-methyl-1H-indol-5-yl)benzamide]", "melting point": "196 to 197"}
{"smiles": "Cn1c(CNC[C@H]2CCCO2)cc2cc(NC(=O)c3ccc(OCC4CC4)cc3)ccc21", "note": "[Example 10, 4-(cyclopropylmethoxy)-N-[1-methyl-2-({[(2R)-tetrahydrofuran-2-ylmethyl]amino}methyl)-1H-indol-5-yl]benzamide]", "melting point": "138 to 139"}
{"smiles": "Cn1c(CNC[C@@H]2CCCO2)cc2cc(NC(=O)c3ccc(OCC4CC4)cc3)ccc21", "note": "[Example 11, 4-(cyclopropylmethoxy)-N-[1-methyl-2-({[(2S)-tetrahydrofuran-2-ylmethyl]amino}methyl)-1H-indol-5-yl]benzamide]", "melting point": 139}
{"smiles": "CC(C)CNCc1cc2cc(NC(=O)c3ccc(OC[C@@H]4CCCO4)cc3)ccc2n1C", "note": "[Example 16, N-(1-methyl-2-{[(2-methylpropyl)amino]methyl}-1H-indol-5-yl)-4-[(2S)-tetrahydrofuran-2-ylmethoxy]benzamide]", "melting point": "132 to 133"}
{"smiles": "Cn1c(CNC2CCC(C)(O)CC2)cc2cc(NC(=O)c3ccc(OC[C@@H]4CCCO4)cc3)ccc21", "note": "(stereo partly drawn) [Example 18, N-(2-{[(trans-4-hydroxy-4-methylcyclohexyl)amino]methyl}-1-methyl-1H-indol-5-yl)-4-[(2S)-tetrahydrofuran-2-ylmethoxy]benzamide]", "melting point": 154}
{"smiles": "Cn1c(CNCC(C)(C)O)cc2cc(NC(=O)c3ccc(OC[C@@H]4CCCO4)cc3)ccc21", "note": "[Example 19, N-(2-{[(2-hydroxy-2-methylpropyl)amino]methyl}-1-methyl-1H-indol-5-yl)-4-[(2S)-tetrahydrofuran-2-ylmethoxy]benzamide]", "melting point": "188 to 190"}
{"smiles": "CC(C)CNCc1cc2cc(NC(=O)c3ccc(OCC4CCOC4)cc3)ccc2n1C", "note": "(stereo not drawn) [Example 21, N-(1-methyl-2-{[(2-methylpropyl)amino]methyl}-1H-indol-5-yl)-4-(tetrahydrofuran-3-ylmethoxy)benzamide]", "melting point": "125 to 126"}
{"smiles": "Cn1c(CNCC(C)(C)C)cc2cc(NC(=O)c3ccc(OCC4CCOC4)cc3)ccc21", "note": "(stereo not drawn) [Example 22, N-(2-{[(2,2-dimethylpropyl)amino]methyl}-1-methyl-1H-indol-5-yl)-4-(tetrahydrofuran-3-ylmethoxy)benzamide]", "melting point": "162 to 163"}
{"smiles": "Cn1c(CNCC2CCOCC2)cc2cc(NC(=O)c3ccc(OCC4CCOC4)cc3)ccc21", "note": "(stereo not drawn) [Example 23, N-(1-methyl-2-{[(tetrahydro-2H-pyran-4-ylmethyl)amino]methyl}-1H-indol-5-yl)-4-(tetrahydrofuran-3-ylmethoxy)benzamide]", "melting point": "153 to 154"}
{"smiles": "Cn1c(CN[C@H]2CC[C@](C)(O)CC2)cc2cc(NC(=O)c3ccc(OCC4CCOC4)cc3)ccc21", "note": "(stereo partly drawn) [Example 24, N-(2-{[(trans-4-hydroxy-4-methylcyclohexyl)amino]methyl}-1-methyl-1H-indol-5-yl)-4-(tetrahydrofuran-3-ylmethoxy)benzamide]", "melting point": "181 to 182"}
{"smiles": "Cn1c(CNCC(C)(C)O)cc2cc(NC(=O)c3ccc(OCC4CCOC4)cc3)ccc21", "note": "(stereo not drawn) [Example 25, N-(2-{[(2-hydroxy-2-methylpropyl)amino]methyl}-1-methyl-1H-indol-5-yl)-4-(tetrahydrofuran-3-ylmethoxy)benzamide]", "melting point": 169}
{"smiles": "Cn1c(CNCC2CCOC2)cc2cc(NC(=O)c3ccc(OCC4CCOC4)cc3)ccc21", "note": "(stereo not drawn) [Example 26, N-(1-methyl-2-{[(tetrahydrofuran-3-ylmethyl)amino]methyl}-1H-indol-5-yl)-4-(tetrahydrofuran-3-ylmethoxy)benzamide]", "melting point": "131 to 133"}
{"smiles": "Cn1c(CNCC(C)(C)O)cc2cc(NC(=O)c3ccc(OC[C@@H]4CCCO4)cc3F)ccc21", "note": "[Example 27, 2-fluoro-N-(2-{[(2-hydroxy-2-methylpropyl)amino]methyl}-1-methyl-1H-indol-5-yl)-4-[(2S)-tetrahydrofuran-2-ylmethoxy]benzamide]", "melting point": "159 to 160"}
{"smiles": "Cn1c(CN[C@H]2CC[C@](C)(O)CC2)cc2cc(NC(=O)c3ccc(OC[C@@H]4CCCO4)cc3F)ccc21", "note": "[Example 28, 2-fluoro-N-(2-{[(trans-4-hydroxy-4-methylcyclohexyl)amino]methyl}-1-methyl-1H-indol-5-yl)-4-[(2S)-tetrahydrofuran-2-ylmethoxy]benzamide]", "melting point": "138 to 139"}
{"smiles": "CC(C)CNCc1cc2cc(NC(=O)c3ccc(C#CC4(O)CCC4)cc3)ccc2n1C", "note": "[Example 29, 4-[(1-hydroxycyclobutyl)ethynyl]-N-(2-{[(2-methylpropyl)amino]methyl}-1-methyl-1H-indol-5-yl)benzamide]", "melting point": "168 to 169"}
{"smiles": "Cn1c(CNCC(C)(C)C)cc2cc(NC(=O)c3ccc(C#CC4(O)CCC4)cc3)ccc21", "note": "[Example 30, N-(2-{[(2,2-dimethylpropyl)amino]methyl}-1-methyl-1H-indol-5-yl)-4-[(1-hydroxycyclobutyl)ethynyl]benzamide]", "melting point": "160 to 161"}
{"smiles": "Cn1c(CNCC(C)(C)C)cc2cc(NC(=O)c3ccc(C#CC4(O)CC4)cc3)ccc21", "note": "[Example 31, N-(2-{[(2,2-dimethylpropyl)amino]methyl}-1-methyl-1H-indol-5-yl)-4-[(1-hydroxycyclopropyl)ethynyl]benzamide]", "melting point": 173}
{"smiles": "Cc1c(CNCC2CCOCC2)[nH]c2ccc(NC(=O)c3ccc(OC[C@@H]4CCCO4)cc3)cc12", "note": "[Example 33, N-(3-methyl-2-{[(tetrahydro-2H-pyran-4-ylmethyl)amino]methyl}-1H-indol-5-yl)-4-[(2S)-tetrahydrofuran-2-ylmethoxy]benzamide]", "melting point": "146 to 147"}
{"smiles": "Cc1c(CNCC(C)C)n(C)c2ccc(NC(=O)c3ccc(OC[C@@H]4CCCO4)cc3)cc12", "note": "[Example 34, N-(2-{[(2-methylpropyl)amino]methyl}-1,3-dimethyl-1H-indol-5-yl)-4-[(2S)-tetrahydrofuran-2-ylmethoxy]benzamide]", "melting point": "145 to 146"}
{"smiles": "Cc1c(CNCC2CCOCC2)n(C)c2ccc(NC(=O)c3ccc(OC[C@@H]4CCCO4)cc3)cc12", "note": "[Example 35, N-(1,3-dimethyl-2-{[(tetrahydro-2H-pyran-4-ylmethyl)amino]methyl}-1H-indol-5-yl)-4-[(2S)-tetrahydrofuran-2-ylmethoxy]benzamide]", "melting point": "185 to 186"}
{"smiles": "Cc1c(CNCC(C)(C)O)n(C)c2ccc(NC(=O)c3ccc(OC[C@@H]4CCCO4)cc3)cc12", "note": "[Example 36, N-(2-{[(2-hydroxy-2-methylpropyl)amino]methyl}-1,3-dimethyl-1H-indol-5-yl)-4-[(2S)-tetrahydrofuran-2-ylmethoxy]benzamide]", "melting point": "145 to 146"}
{"smiles": "Cc1c(CNCC(C)(C)C)n(C)c2ccc(NC(=O)c3ccc(OC[C@@H]4CCCO4)cc3)cc12", "note": "[Example 37, N-(2-{[(2,2-dimethylpropyl)amino]methyl}-1,3-dimethyl-1H-indol-5-yl)-4-[(2S)-tetrahydrofuran-2-ylmethoxy]benzamide]", "melting point": "165 to 166"}
{"smiles": "Cc1c(CN[C@H]2CC[C@](C)(O)CC2)n(C)c2ccc(NC(=O)c3ccc(OC[C@@H]4CCCO4)cc3)cc12", "note": "[Example 38, N-(2-{[(trans-4-hydroxy-4-methylcyclohexyl)amino]methyl}-1,3-dimethyl-1H-indol-5-yl)-4-[(2S)-tetrahydrofuran-2-ylmethoxy]benzamide]", "melting point": "172 to 173"}
{"smiles": "Cc1c(CNCC(C)C)n(C)c2ccc(NC(=O)c3ccc(OCC4CC4)cc3)cc12", "note": "[Example 39, 4-(cyclopropylmethoxy)-N-(2-{[(2-methylpropyl)amino]methyl}-1,3-dimethyl-1H-indol-5-yl)benzamide]", "melting point": "142 to 143"}
{"smiles": "Cc1c(CNCC2CCOCC2)n(C)c2ccc(NC(=O)c3ccc(OCC4CC4)cc3)cc12", "note": "[Example 40, 4-(cyclopropylmethoxy)-N-(1,3-dimethyl-2-{[(tetrahydro-2H-pyran-4-ylmethyl)amino]methyl}-1H-indol-5-yl)benzamide]", "melting point": "176 to 177"}
{"smiles": "Cc1c(CNCC(C)(C)C)n(C)c2ccc(NC(=O)c3ccc(OCC4CC4)cc3)cc12", "note": "[Example 41, 4-(cyclopropylmethoxy)-N-(2-{[(2,2-dimethylpropyl)amino]methyl}-1,3-dimethyl-1H-indol-5-yl)benzamide]", "melting point": "169 to 170"}
